≈ marks a conversion by molar mass, not a printed value. Entries after “also recorded” stand apart in the source; their conditions may differ.
How the values were obtained:
T84 = assay: Sulforhodamine B (SRB) assay; type: cell-based; details: Homo sapiens; T84, Colon; 48 hours; read-out: GI50 (SRB in vitro cytotoxicity)
Protocol: (§1) Growth inhibitory effect of Compound A on the cells listed below was measured by the sulforhodamine B assay. SW480 cells in 100 μl media were plated in each well of 96-well plate and allowed to attach for 24 hours. Compound A was added to the wells to produce the desired final concentrations, and the plates were incubated at 37° C. for 48 hours. The cells were then fixed by gentle addition of 100 μl of cold (4° C.) 10% trichloroacetic acid to each well, followed by incubation at 4° C. for 1 hour. Plates were washed with deionized water five times and allowed to air dry. The cells were then stained by addition of 100 μl SRB solution (0.4% SRB(w/v) in 1% acetic acid (v/v)) to wells for 15 min. After staining, the plates were quickly washed five times with 1% acetic acid to remove any unbound dye, and allowed to air dry. Bound dye was solubilized with 10 mmol/L Tris base (pH 10.5) prior to reading the plates. The optical density (OD) was read on a plate reader at a wavelength of 515 nm with Molecular Device. Inhibition of growth was expressed as relative viability (% of control) and GI50 was calculated from concentration-response curves after log/probit transformation.

RPM17951 = assay: Sulforhodamine B (SRB) assay; type: cell-based; details: RPM17951, Melanoma; 48 hours; read-out: GI50 (SRB in vitro cytotoxicity)
Protocol: as §1

KM12 = assay: Sulforhodamine B (SRB) assay; type: cell-based; details: Homo sapiens; KM12, Colon; 48 hours; read-out: GI50 (SRB in vitro cytotoxicity)
Protocol: as §1

A253 = assay: Sulforhodamine B (SRB) assay; type: cell-based; details: Homo sapiens; A253, Melanoma; 48 hours; read-out: GI50 (SRB in vitro cytotoxicity)
Protocol: as §1

K562/VIN = assay: Sulforhodamine B (SRB) assay; type: cell-based; details: Homo sapiens, Leukemia, 48 hours, read-out: GI50 (SRB in vitro cytotoxicity)
Protocol: as §1

HCT116 = assay: Sulforhodamine B (SRB) assay; type: cell-based; details: Homo sapiens, HCT-116; HCT116, Colon; 48 hours; read-out: GI50 (SRB in vitro cytotoxicity)
Protocol: as §1

ACHN = assay: Sulforhodamine B (SRB) assay; type: cell-based; details: Homo sapiens, Renal, 48 hours, read-out: GI50 (SRB in vitro cytotoxicity)
Protocol: as §1

SW620 = assay: Sulforhodamine B (SRB) assay; type: cell-based; details: Homo sapiens, SW-620; SW620, Colon; 48 hours; read-out: GI50 (SRB in vitro cytotoxicity)
Protocol: as §1

HCT15 = assay: Sulforhodamine B (SRB) assay; type: cell-based; details: Homo sapiens, HCT-15; HCT15, Colon; 48 hours; read-out: GI50 (SRB in vitro cytotoxicity)
Protocol: as §1

HMV-II = assay: Sulforhodamine B (SRB) assay; type: cell-based; details: Melanoma, 48 hours, read-out: GI50 (SRB in vitro cytotoxicity)
Protocol: as §1

CRL1579 = assay: Sulforhodamine B (SRB) assay; type: cell-based; details: CRL1579, Melanoma; 48 hours; read-out: GI50 (SRB in vitro cytotoxicity)
Protocol: as §1

MCF7/ADR = assay: Sulforhodamine B (SRB) assay; type: cell-based; details: Homo sapiens, NCI/ADR-RES, Breast, 48 hours, read-out: GI50 (SRB in vitro cytotoxicity)
Protocol: as §1

A549 = assay: Sulforhodamine B (SRB) assay; type: cell-based; details: Homo sapiens; A549, Lung; 48 hours; read-out: GI50 (SRB in vitro cytotoxicity)
Protocol: as §1

[1] = test system: Ephrin B2 (EphB2) receptor in PC-12 PS-1/L286V cells; assay: EphB2 receptor expression (immunofluorescence and RT-PCR); type: cell-based, Rat; details: PS-1/L286V mutant PC-12 cells; 10 μM
Protocol: Immunofluorescence. Cells were plated at a density of 10,000 cells/cm^2 on sterile coated 22×22 mm coverslips in a 6-well culture plate. Differentiation was initiated, as previously described, for 10 days. The differentiated cells were then fixed in methanol for 15 minutes at −20° C. This is followed by a 15 minutes incubation with PBS+0.1% Triton X-100. The coverslips were incubated with antibodies raised against Ephrin B2 Receptor (Santa Cruz Biotechnology) and Gap-43 (Novus Biologicals) for 40 minutes at 37° C. After a series of washes with PBS-Triton X-100, secondary antibody conjugated to FITC (Jackson ImmunoResearch, Westgrove, Pa.) was applied. All slides images were acquired using a Nikon PCM2000 Laser Scanning Confocal Microscope mounted on a Nikon Eclipse E600 upright microscope (Nikon, Melville, N.Y.).
RT-PCR. To analyze the mRNA levels for Ephrin B2 (EphB2) receptor, total RNA was isolated using Trizol (Invitrogen-GIBCO-BRL, Baltimore, Md.) from differentiated cells. 2 μg RNA was reverse transcribed in a total volume of 20 μl with random hexamer (50 ng), and using the Superscript II reverse transcription system (Invitrogen-GIBCO-BRL), according to manufacturer's guidelines. PCR was carried out in a 50 μl volume containing 5 μl cDNA, 100 pmol primers, 100 μM dNTPs, 1×Taq buffer and 1.5 mM MgCl2. […]

[2] = test system: PC-12 cells overexpressing mutant PS-1/L286V; assay: Neuronal differentiation and quantitation of neurite outgrowth; type: cell-based, Rat; details: PS-1/L286V mutant PC-12 cells
Protocol: Cell Differentiation. Cell culture dishes were pre-coated overnight with 0.25 mg/ml collagen (Cohesion, Calif.), 10 μg/ml Poly-L-Lysine (Sigma-Aldrich, St. Louis, Mo.) and 12 μg/ml Polyethyleneimine (ICN, La Mesa, Calif.). Cells were cultured on coated dishes at 15,000 cells/cm^2, and differentiated into a neuron-like phenotype by incubation in medium with reduced serum (1% fetal bovine serum), containing 50 ng/ml nerve growth factor (NGF) (Sigma-Aldrich) for 10 days. NGF-containing medium was changed every 2-3 days.
Differentiated PC-12/L286V cells were treated with increasing concentrations of this compound for 4 hours. Transfection was then initiated after this treatment period.
Quantitation of Neurite Outgrowth. Cell counts were taken from six randomly chosen microscopic fields (10×). […] The number of cells with such outgrowths was then expressed as a percentage of the total number of cells. Values obtained were from duplicates of three independent experiments.

Structure (SMILES) | GI50 (T84) | GI50 (RPM17951) | GI50 (KM12) | GI50 (A253) | GI50 (K562/VIN) | GI50 (HCT116) | GI50 (ACHN) | GI50 (SW620) | GI50 (HCT15) | GI50 (HMV-II) | GI50 (CRL1579) | GI50 (MCF7/ADR) | GI50 (A549) | EphB2 message (RT-PCR) [1] | EphB2 receptor expression (immunofluorescence) [1] | percentage of cells bearing neurites greater than twice the length of the cell body ([2]; 10 μM) | neurite outgrowth and differentiation ([2]; 10 μM plus NGF, 10 days)
O=c1[nH]cc(F)c(=O)[nH]1 [Compound 5-FU, 5-fluorouracil] | 1.82 µg/mL (≈ 14 µM) | 0.92 µg/mL (≈ 7.07 µM) | 2.73 µg/mL (≈ 21 µM) | 2.93 µg/mL (≈ 22.5 µM) | 7.07 µg/mL (≈ 54.4 µM) | 1.04 µg/mL (≈ 7.99 µM) | 5.06 µg/mL (≈ 38.9 µM) | 5.57 µg/mL (≈ 42.8 µM) | 1.18 µg/mL (≈ 9.06 µM) | 0.695 µg/mL (≈ 5.34 µM) | > 10 µg/mL | > 10 µg/mL | 1.01 µg/mL (≈ 7.74 µM) |  |  |  | 
O=C1[C@H](Cc2ccc(O)cc2)N2C(=O)CCN(C(=O)NCc3ccccc3)[C@H]2CN1Cc1cccc2ccccc12 [Compound D] |  |  |  |  |  |  |  |  |  |  |  |  |  | increased EphB2 message; also recorded: upregulates EphB2 message | increased EphB2 receptor expression | substantially increased the percentage of cells bearing neurites; also recorded: significantly increased | essentially normal neurite outgrowth and differentiation; also recorded: phenotypically corrects deficient neuronal differentiation

Reference: patent US7671054B1, “Reverse-turn mimetics and method relating thereto” (Choongwae Pharma Corporation, priority 2001, dated 2010)
